Several values for one entry are separate records, joined by “and”; a condition that tells them apart may be missing. Equal entries are not always repeated. Where two headings read alike, the source gives them in different places.
What was measured:
serum DPPIV = serum DPPIV (Mus musculus, UniProt P28843); assay: PK/PD experiment of ICR mice: activity of serum DPPIV; assay type: in vivo, CD-1 (ICR) mice; parameters: the plasma concentration and the DPPIV activity were detected by using plasma; from tissue; host or cells: blood plasma/serum of CD-1 (ICR) mice after oral dosing; details: ICR mice, 0.1, 0.3, 1 and 3 mg/kg intragastric (FIG. 28)
Sequence of serum DPPIV (P28843 38-760 limits assumed): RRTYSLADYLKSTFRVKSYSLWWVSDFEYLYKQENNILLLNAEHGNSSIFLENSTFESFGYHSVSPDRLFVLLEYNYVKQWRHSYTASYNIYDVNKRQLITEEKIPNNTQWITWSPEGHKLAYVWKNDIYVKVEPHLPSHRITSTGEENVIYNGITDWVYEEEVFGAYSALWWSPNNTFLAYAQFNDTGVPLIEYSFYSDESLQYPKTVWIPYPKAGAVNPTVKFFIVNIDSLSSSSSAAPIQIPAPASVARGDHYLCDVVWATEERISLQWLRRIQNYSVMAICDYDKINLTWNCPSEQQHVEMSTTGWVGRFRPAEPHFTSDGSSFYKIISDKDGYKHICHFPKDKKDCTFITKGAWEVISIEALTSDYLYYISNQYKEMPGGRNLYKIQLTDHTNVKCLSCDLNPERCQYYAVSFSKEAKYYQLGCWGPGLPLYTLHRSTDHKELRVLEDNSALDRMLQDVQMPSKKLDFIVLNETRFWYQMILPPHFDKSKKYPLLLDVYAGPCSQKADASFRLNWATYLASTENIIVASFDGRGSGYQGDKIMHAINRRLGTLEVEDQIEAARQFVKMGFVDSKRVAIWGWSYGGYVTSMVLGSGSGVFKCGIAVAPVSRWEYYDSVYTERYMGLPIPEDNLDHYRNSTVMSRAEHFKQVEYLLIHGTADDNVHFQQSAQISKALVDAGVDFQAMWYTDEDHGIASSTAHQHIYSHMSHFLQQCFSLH
Protocol: (§1) Experimental animals: CD-1 (ICR) mice aged for 4 weeks and weighed for about 18-22 g.
(§2) Grouping and administration scheme: the mice were fed adaptively, randomly grouped according to the weight on the day before experiment, and fasted overnight. […] After the experimental grouping, the group provided separately for detecting the initial basic value of DPPIV was carried out blood sampling, and other animals were intragastrically administrated with the drug at an administration volume of 10 mL/kg, the blood was sampled after the administration, and all other animals were stimulated with glucose administration; the blood was sampled at 20 min, 40 min, 60 min and 120 min after the glucose administration, respectively, and the plasma concentration and the DPPIV activity were detected by using plasma.

[1] = PK/PD experiment of ICR mice: plasma concentration; assay type: in vivo, CD-1 (ICR) mice; details: CD-1 (ICR), mouse; for AUC: read-out: Drug exposure (AUCeff0-3 h)
Protocol: as §1, §2
Research on pharmacodynamics-plasma concentration correlation: blood samples were collected at time points of 1 h, 1.33 h, 1.67 h, 2 h and 3 h after administration, and the plasma concentration was measured. The drug exposure value (AUCeff0-3h) of the DPPIV-P1 increased with the increase of dose, which was 16.09 ng·h/mL, 52.65 ng·h/mL, 162.3 ng·h/mL and 542.28 ng·h/mL, respectively.

[2] = Dynamic vapor sorption (DVS); assay type: physicochemical
Protocol: Dynamic vapor sorption (DVS): Dynamic vapor sorption (DVS) curves were acquired by DVS Intrinsic of SMS (Surface Measurement Systems). The relative humidity at 25° C. was corrected by deliquescence points of LiCl, Mg(NO3)2 and KCl.
(§3) The crystal form B of phosphate prepared in this example was put into a 1.5 mL small bottle and the small bottles was placed under different conditions: 40° C./75% RH or 25° C./60% RH for one week in an open state, or 80° C. for 24 h. The obtained samples were subjected to XRPD test and HPLC test, and the sealed samples placed at 5° C. were used as reference samples (Initial) for HPLC purity test. […] The weight gain at 25° C./80% RH is 6.5% compared to 0% RH.

[3] = Weight of ICR mice of each group; assay type: in vivo, CD-1 (ICR) mice; details: individual animals
Protocol: as §1, §2

DIO mice [4] = assay: Long-term administration on DIO mice: fasting blood glucose; assay type: in vivo; details: for inhibition rate of the rise of the blood glucose: end of experiment (28 days), vs model control group; for fasting blood glucose data after the drug was administrated for 28 days: individual animals
Protocol: A solution with a certain concentration was prepared from the crystal form B of the phosphate, and the administration volume was 10 mL/kg.
Experimental animals: C57BL16 mice aged for 5 weeks and weighed for about 13-16 g.
Grouping and administration scheme: the mice were fed adaptively and divided into a normal control group and a model group which were fed with high-fat feed (Research diets, D 12492). When the fasting blood glucose of the mice was greater than or equal to 7 mM, it was considered that the mice had become DIO mice. The DIO mice could be selected for the hypoglycemic effect test. The DIO mice were stratified and randomly grouped according to the blood glucose and the weight. […] The weight and the fasting blood glucose were measured weekly; the food amount, the remaining food amount and the food intake were recorded; the mice were fasted overnight at the end of administration, the blood was sampled, and the free fatty acid (NEFA), total cholesterol (TCHO), triglyceride (TG), insulin and DPPIV activity were measured by using serum.

DIO mice [5] = assay: Long-term administration on DIO mice: serum metabolic parameters (NEFA, TCHO, TG, insulin); assay type: in vivo, C57BL16 mice; details: end of long-term administration; for Serum NEFA / Serum TCHO / Serum TG / Serum insulin: fasted overnight
Description: Experimental animals: […] Table 18 was a total data table of the metabolic parameters.

[6] = Stability of phosphate crystal form B under storage conditions (XRPD, HPLC purity); assay type: physicochemical
Protocol: High performance liquid chromatography (HPLC): the high performance liquid chromatogram was acquired by Agilent 1260 HPLC.
as §3

C[C@@H]1c2cnc(C(F)(F)F)n2CCN1C(=O)C[C@H](N)Cc1cc(F)c(F)cc1F [DPPIV-P1, (8R)-7-[(3R)-3-amino-1-oxo-4-(2,4,5-trifluorophenyl)butyl]-5,6,7,8-tetrahydro-8-methyl-3-(trifluoromethyl)imidazo[1,5-a]pyrazine]
influence on the activity of serum DPPIV (serum DPPIV): good dose-effect relationship
concentration at 1 h ([1]; oral dose 0.1 mg/kg): 8.28 ± 0.96 ng/mL
concentration at 1.33 h ([1]; oral dose 0.1 mg/kg): 6.51 ± 1.58 ng/mL
concentration at 1.67 h ([1]; oral dose 0.1 mg/kg): 6.46 ± 0.2 ng/mL
concentration at 2 h ([1]; oral dose 0.1 mg/kg): 5.73 ± 0.65 ng/mL
concentration at 3 h ([1]; oral dose 0.1 mg/kg): 4.85 ± 0.25 ng/mL
AUC ([1]; oral dose 0.1 mg/kg): 16.1 ng·h/mL
concentration at 1 h ([1]; oral dose 0.3 mg/kg): 26.4 ± 6.47 ng/mL
concentration at 1.33 h ([1]; oral dose 0.3 mg/kg): 25 ± 3.42 ng/mL
concentration at 1.67 h ([1]; oral dose 0.3 mg/kg): 17.9 ± 2.43 ng/mL
concentration at 2 h ([1]; oral dose 0.3 mg/kg): 20.5 ± 0.32 ng/mL
concentration at 3 h ([1]; oral dose 0.3 mg/kg): 14.2 ± 1.48 ng/mL
AUC ([1]; oral dose 0.3 mg/kg): 52.6 ng·h/mL
concentration at 1 h ([1]; oral dose 1 mg/kg): 72.8 ± 7.04 ng/mL
concentration at 1.33 h ([1]; oral dose 1 mg/kg): 71.9 ± 2.71 ng/mL
concentration at 1.67 h ([1]; oral dose 1 mg/kg): 75.2 ± 6.09 ng/mL
concentration at 2 h ([1]; oral dose 1 mg/kg): 57.9 ± 2.06 ng/mL
concentration at 3 h ([1]; oral dose 1 mg/kg): 52.2 ± 5.54 ng/mL
AUC ([1]; oral dose 1 mg/kg): 162 ng·h/mL
concentration at 1 h ([1]; oral dose 3 mg/kg): 231 ± 16.6 ng/mL
concentration at 1.33 h ([1]; oral dose 3 mg/kg): 292 ± 47.2 ng/mL
concentration at 1.67 h ([1]; oral dose 3 mg/kg): 242 ± 17.7 ng/mL
concentration at 2 h ([1]; oral dose 3 mg/kg): 201 ± 44.7 ng/mL
concentration at 3 h ([1]; oral dose 3 mg/kg): 151 ± 26.4 ng/mL
AUC ([1]; oral dose 3 mg/kg): 542 ng·h/mL
weight gain (DVS) ([2]; 25° C./80% RH compared to 0% RH): 6.5%
crystal form before and after the DVS test (XRPD) ([2]; after DVS test): the crystal form remained unchanged
weight ([3]; 0.1 mg/kg group, 0.1 mg/kg, in g (unit assumed)): 22.0 and 24.5 and 24.7 and 25.1 and 26.3 and 26.9 and 24.6 and 23.4 and 24.4 and 25.0 and 23.0 and 24.8 and 24.9 and 26.2 and 24.2
weight ([3]; 0.3 mg/kg group, 0.3 mg/kg): 25.3 (2×) and 24.0 and 24.1 and 23.9 and 24.9 (2×) and 24.6 and 26.4 and 26.0 and 25.5 and 22.0 and 22.6 and 25.0 and 24.4
weight ([3]; 1 mg/kg group, 1 mg/kg): 26.9 and 25.1 (2×) and 23.5 and 23.6 (2×) and 24.9 (2×) and 24.8 and 26.1 and 25.8 and 26.4 and 25.2 and 22.4 and 23.4
weight ([3]; 3 mg/kg group, 3 mg/kg, in g (unit assumed)): 25.0 and 24.8 and 23.0 and 25.4 and 21.7 and 27.3 and 22.3 and 22.4 and 25.7 and 24.0 and 23.3 and 24.1 and 25.2 and 27.2 and 24.5
Fasting blood glucose (DIO mice [4]; 0.3 mg/kg daily intragastric, D 1): 8.3 ± 1.1 mmol/L
Fasting blood glucose (DIO mice [4]; 0.3 mg/kg daily intragastric, D 3): 8.4 ± 0.9 mmol/L
Fasting blood glucose (DIO mice [4]; 0.3 mg/kg daily intragastric, D 7): 8.4 ± 1.0 mmol/L
Fasting blood glucose (DIO mice [4]; 0.3 mg/kg daily intragastric, D 14): 8.9 ± 1.1 mmol/L
Fasting blood glucose (DIO mice [4]; 0.3 mg/kg daily intragastric, D 21): 8.5 ± 1.0 mmol/L
Fasting blood glucose (DIO mice [4]; 0.3 mg/kg daily intragastric, D 28): 8.3 ± 0.8 mmol/L
inhibition rate of the rise of the blood glucose (DIO mice [4]; 0.3 mg/kg): 14.2%
Fasting blood glucose (DIO mice [4]; 3 mg/kg daily intragastric, D 1): 8.3 ± 1.1 mmol/L
Fasting blood glucose (DIO mice [4]; 3 mg/kg daily intragastric, D 3): 8.3 ± 0.9 mmol/L
Fasting blood glucose (DIO mice [4]; 3 mg/kg daily intragastric, D 7): 8.6 ± 2.2 mmol/L
Fasting blood glucose (DIO mice [4]; 3 mg/kg daily intragastric, D 14): 9.1 ± 1.6 mmol/L
Fasting blood glucose (DIO mice [4]; 3 mg/kg daily intragastric, D 21): 8.6 ± 1.0 mmol/L
Fasting blood glucose (DIO mice [4]; 3 mg/kg daily intragastric, D 28): 8.7 ± 0.9 mmol/L
inhibition rate of the rise of the blood glucose (DIO mice [4]; 3 mg/kg): 9.9%
Fasting blood glucose (DIO mice [4]; 30 mg/kg daily intragastric, D 1): 8.3 ± 1.0 mmol/L
Fasting blood glucose (DIO mice [4]; 30 mg/kg daily intragastric, D 3): 7.8 ± 1.5 mmol/L
Fasting blood glucose (DIO mice [4]; 30 mg/kg daily intragastric, D 7): 7.9 ± 0.8 mmol/L
Fasting blood glucose (DIO mice [4]; 30 mg/kg daily intragastric, D 14): 7.7 ± 0.7 mmol/L
Fasting blood glucose (DIO mice [4]; 30 mg/kg daily intragastric, D 21): 8.1 ± 0.6 mmol/L
Fasting blood glucose (DIO mice [4]; 30 mg/kg daily intragastric, D 28): 7.9 ± 0.6 mmol/L
inhibition rate of the rise of the blood glucose (DIO mice [4]; 30 mg/kg): 18.5%
fasting blood glucose data after the drug was administrated for 28 days (DIO mice [4]; 0.3 mg/kg): 10.3 and 8 (3×) and 7.3 (2×) and 8.8 and 8.7 and 8.3 and 8.6 and 7.9
fasting blood glucose data after the drug was administrated for 28 days (DIO mice [4]; 3 mg/kg): 9.2 and 7.8 (2×) and 9.8 and 8.9 and 9 and 7.3 and 9.7 and 8 and 8.3 and 10
fasting blood glucose data after the drug was administrated for 28 days (DIO mice [4]; 30 mg/kg, listed as DPPIV-PI): 8.5 and 7.3 and 7.4 (3×) and 7.6 and 8.9 and 8.2 (2×) and 7.5 and 7.8
decrease of insulin compared with the model control group (DIO mice [5]; 0.3 mg/kg): 28.3%
Serum NEFA (DIO mice [5]; 0.3 mg/kg): 1.21 ± 0.07 mmol/L
Serum TCHO (DIO mice [5]; 0.3 mg/kg): 5.01 ± 0.58 mmol/L
Serum TG (DIO mice [5]; 0.3 mg/kg): 1.04 ± 0.13 mmol/L
Serum insulin (DIO mice [5]; 0.3 mg/kg): 3.2 ± 2.44 ng/mL
Serum NEFA (DIO mice [5]; 3 mg/kg): 1.08 ± 0.14 mmol/L
Serum TCHO (DIO mice [5]; 3 mg/kg): 5.06 ± 0.65 mmol/L
Serum TG (DIO mice [5]; 3 mg/kg): 0.94 ± 0.15 mmol/L
Serum insulin (DIO mice [5]; 3 mg/kg): 4.7 ± 3.55 ng/mL
decrease of total cholesterol (TCHO) compared with the model control group (DIO mice [5]; 30 mg/kg): 18.4%
Serum NEFA (DIO mice [5]; 30 mg/kg): 1.01 ± 0.11 mmol/L
Serum TCHO (DIO mice [5]; 30 mg/kg): 4.36 ± 0.45 mmol/L
Serum TG (DIO mice [5]; 30 mg/kg): 0.83 ± 0.11 mmol/L
Serum insulin (DIO mice [5]; 30 mg/kg): 4.9 ± 4.04 ng/mL
Crystal form ([6]; 25° C./60% RH, one week): Phosphate crystal form B
Purity (area %) ([6]; 25° C./60% RH, one week, open): 99.65 area %
Crystal form ([6]; 40° C./75% RH, one week): Phosphate crystal form B
Purity (area %) ([6]; 40° C./75% RH, one week, open): 99.64 area %
Appearance ([6]; 80° C. for 24 h): changed from white solid into yellow solid
Crystal form ([6]; 80° C., 24 h): Phosphate crystal form B
Purity (area %) ([6]; 80° C., 24 h): 99.48 area %
Crystal form ([6]; Initial): Phosphate crystal form B
Purity (area %) ([6]; Initial (sealed reference sample placed at 5° C.)): 99.78 area %

Reference: patent US11046701B2, “Salt of cetagliptin, preparation method thereof, pharmaceutical composition, and use thereof” (CGENETECH (SUZHOU, CHINA) CO., LTD., priority 2018, dated 2021)
